Test results as given in US20090170844A1, “Spiro Tetracyclic Compound” (priority 2006, published 2009).

Assays:
human FXa = molecular target: T1, human FXa (Homo sapiens, UniProt P00742); experiment: Measurement of the human FXa inhibitory action (synthetic substrate S-2222); assay type: biochemical; conditions: human FXa 0.019 U/ml, S-2222 0.4 mM, 37° C., pH 7.5
T1 construct: purchased Enzyme Research Laboratories, Inc
Description: In vitro FXa inhibitory activity may be measured according to the method of Kettner et al. (Journal of Biological Chemistry, vol. 265, pages 18289 to 18297, 1990). To be more specific, human FXa (product of Enzyme Research Laboratories, Inc., 0.019 U/ml) is mixed with the specimens (of the compound of the present invention) prepared by diluting the compound of the invention with dimethylsulfoxide (DMSO) to different concentrations and synthetic substrate S-2222 (Chromogenix AB, 0.4 mM), and the mixtures are incubated at 37° C. in Tris-hydrochloric acid buffer (pH 7.5). The FXa inhibitory activity of the specimen is calculated by measuring the absorbance at 405 nm.
It should be noted that the FXa inhibitory activity of the specimen is generally indicated as IC50.

human plasma = experiment: Anticoagulant activity in vitro: intrinsic coagulation time (APTT); assay type: biochemical; conditions: APTT reagent, calcium chloride 25 mM
Description: Activated partial thromboplastin time (APTT) is measured in the presence of the test compounds of the present invention diluted at various concentrations. To be more specific, each of the test compounds diluted with DMSO at various concentrations is mixed with human plasma and APTT reagent. The mixture is incubated at 37° C. for 2 minutes; calcium chloride (25 mM) is added to the mixture; and the coagulation time is thereafter measured. It should be noted that the anticoagulant activity of the test compound is described in terms of the concentration required to double the coagulation time for the case where no test compound is added.

T1 sequence (P00742 235-488 limits assumed): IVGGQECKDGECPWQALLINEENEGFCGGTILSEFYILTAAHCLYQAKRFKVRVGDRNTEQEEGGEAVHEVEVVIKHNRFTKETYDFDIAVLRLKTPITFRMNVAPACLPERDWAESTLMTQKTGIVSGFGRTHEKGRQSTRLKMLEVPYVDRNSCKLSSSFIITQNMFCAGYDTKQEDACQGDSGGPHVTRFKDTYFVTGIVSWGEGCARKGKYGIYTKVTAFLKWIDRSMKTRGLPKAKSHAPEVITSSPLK
T1 sequence (P00742 41-179 partner limits assumed): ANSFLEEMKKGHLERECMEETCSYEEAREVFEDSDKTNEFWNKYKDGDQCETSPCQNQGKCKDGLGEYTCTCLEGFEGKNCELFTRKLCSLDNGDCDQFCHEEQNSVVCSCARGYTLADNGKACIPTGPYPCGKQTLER

| IC50 (human FXa) | Compound | Concentration when APTT was doubled (human plasma) |
| --- | --- | --- |
| 3.6 nM | CN1CC23CN(S(=O)(=O)c4cc5ccc(Cl)cc5s4)CC(=O)N2CC2(CCN(C4=NCCCC4)CC2)N3C1=O (single isomer, unassigned; (-)) [Example 14, (−)-3′,5′,8′,11′-tetraaza-11′-(6-chlorobenzo[b]thiophen-2-ylsulfonyl)-1-(3,4,5,6-tetrahydropyridin-2-yl)-3′-methylspiro[piperidine-4,6′-tricyclo[6.4.0.0^1,5]dodecane]-4′,9′-dione] | 0.24 µM |
| 0.4 nM | CN1CC23CN(S(=O)(=O)c4cc5cc(Cl)ccc5[nH]4)CC(=O)N2CC2(CCN(C4=NCCO4)CC2)N3C1=O (single isomer, unassigned; (-)) [Example 17, (−)-3′,5′,8′,11′-tetraaza-11′-(5-chloro-1H-indol-2-ylsulfonyl)-3′-methyl-1-(2-oxazolinyl)spiro[piperidine-4,6′-tricyclo[6.4.0.0^1,5]dodecane]-4′,9′-dione] | – |
| – | CN1CC23CN(S(=O)(=O)c4cc5ccc(Cl)cc5s4)CC(=O)N2CC2(CCN(C4=NCCCO4)CC2)N3C1=O (single isomer, unassigned; (-)) [Example 12, (−)-3′,5′,8′,11′-tetraaza-11′-(6-chlorobenzo[b]thiophen-2-ylsulfonyl)-1-(5,6-dihydro-4H-1,3-oxazin-2-yl)-3′-methylspiro[piperidine-4,6′-tricyclo[6.4.0.0^1,5]dodecane]-4′,9′-dione] | 0.34 µM |
| – | CN1CC23CN(S(=O)(=O)c4ccc5cc(Cl)ccc5c4)CC(=O)N2CC2(CCN(C4=NCCCC4)CC2)N3C1=O (single isomer, unassigned; (-)) [Example 8, (−)-3′,5′,8′,11′-tetraaza-11′-(6-chloronaphthalen-2-ylsulfonyl)-1-(3,4,5,6-tetrahydropyridin-2-yl)-3′-methylspiro[piperidine-4,6′-tricyclo[6.4.0.0^1,5]dodecane]-4′,9′-dione] | 0.27 µM |
| 4.3 nM | CN1CC23CN(S(=O)(=O)c4cc5cc(Cl)ccc5[nH]4)CC(=O)N2CC2(CCN(C4=NCCCO4)CC2)N3C1=O (single isomer, unassigned; (-)) [Example 18, (−)-3′,5′,8′,11′-tetraaza-11′-(5-chloro-1H-indol-2-ylsulfonyl)-1-(5,6-dihydro-4H-1,3-oxazin-2-yl)-3′-methylspiro[piperidine-4,6′-tricyclo[6.4.0.0^1,5]dodecane]-4′,9′-dione] | 0.26 µM |
| 4.1 nM | O=C1CN(S(=O)(=O)c2ccc3cc(Cl)ccc3c2)CC23CNC(=O)N2C2(CCN(c4cccnn4)CC2)CN13 (racemic) [Example 3, (±)-3′,5′,8′,11′-tetraaza-11′-(6-chloronaphthalen-2-ylsulfonyl)-1-(3-pyridazinyl)spiro[piperidine-4,6′-tricyclo[6.4.0.0^1,5]dodecane]-4′,9′-dione] | – |
| 4.8 nM | O=C1CN(S(=O)(=O)c2ccc3cc(Cl)ccc3c2)CC23CNC(=O)N2C2(CCN(C4=NCCO4)CC2)CN13 (racemic) [Example 2, (±)-3′,5′,8′,11′-tetraaza-11′-(6-chloronaphthalen-2-ylsulfonyl)-1-(2-oxazolinyl)spiro[piperidine-4,6′-tricyclo[6.4.0.0^1,5]dodecane]-4′,9′-dione] | – |
| 3 nM | CN1CC23CN(S(=O)(=O)c4cc5cc(Cl)ccc5[nH]4)CC(=O)N2CC2(CCN(C4=NCCCC4)CC2)N3C1=O (single isomer, unassigned; (-)) [Example 20, (−)-3′,5′,8′,11′-tetraaza-11′-(5-chloro-1H-indol-2-ylsulfonyl)-1-(3,4,5,6-tetrahydropyridin-2-yl)-3′-methylspiro[piperidine-4,6′-tricyclo[6.4.0.0^1,5]dodecane]-4′,9′-dione] | 0.24 µM |
| 4 nM | CCC(=O)N1CCC2(CC1)CN1C(=O)CN(S(=O)(=O)c3cc4cc(Cl)ccc4[nH]3)CC13CN(C)C(=O)N23 (single isomer, unassigned; (-)) [Example 22, (−)-3′,5′,8′,11′-tetraaza-11′-(5-chloro-1H-indol-2-ylsulfonyl)-3′-methyl-1-propionylspiro[piperidine-4,6′-tricyclo[6.4.0.0^1,5]dodecane]-4′,9′-dione] | – |
| 4 nM | CN1CN2C3(CCN(c4ccncc4)CC3)CN3C(=O)CN(S(=O)(=O)c4ccc5cc(Cl)ccc5c4)CC32C1 (racemic) [Example 5, (±)-3′,5′,8′,11′-tetraaza-11′-(6-chloronaphthalen-2-ylsulfonyl)-3′-methyl-1-(4-pyridyl)spiro[piperidine-4,6′-tricyclo[6.4.0.0^1,5]dodecan]-9′-one] | – |
| 2.4 nM | CN1CC23CN(S(=O)(=O)c4ccc5cc(Cl)ccc5c4)CC(=O)N2CC2(CCN(C4=NCCO4)CC2)N3C1=O (single isomer, unassigned; (-)) [Example 29, (−)-3′,5′,8′,11′-tetraaza-11′-(6-chloronaphthalen-2-ylsulfonyl)-3′-methyl-1-(2-oxazolinyl)spiro[piperidine-4,6′-tricyclo[6.4.0.0^1,5]dodecane]-4′,9′-dione] | – |
| 4.7 nM | CN1CC23CN(S(=O)(=O)c4cc5ccc(Cl)cc5s4)CC(=O)N2CC2(CCN(C4=NCCO4)CC2)N3C1=O (single isomer, unassigned; (-)) [Example 11, (−)-3′,5′,8′,11′-tetraaza-11′-(6-chlorobenzo[b]thiophen-2-ylsulfonyl)-3′-methyl-1-(2-oxazolinyl)spiro[piperidine-4,6′-tricyclo[6.4.0.0^1,5]dodecane]-4′,9′-dione] | – |
